Marks after values point to notes of the source that are not given here.
Assay: Fat content of produced milk in sorbitol feeding trials
Assay type: in vivo, Holstein cows
Details: for Fat in Produced Milk: Pre-Partum Trial #1 (75/0/0 g/day in wk −3..−1/+1..+4/+5..+8)
Protocol: To determine the weight percent total fat, wet basis, in a sample, the actual weight of fat in the sample is determined in accordance with Method #974.09 (33.7.18) of Official Methods of Analysis, Association of Official Analytical Chemists (AOAC) (16th Ed., 1995). The weight percent total fat, wet basis, is then calculated by dividing the actual weight of fat in the sample by the actual weight of the sample. Each cow of each of the six different trials (Control Trial #1, Control Trial #2, Pre-Partum Trial #1, Pre-Partum Trial #2, Pre/Post Trial #1, and Pre/Post Trial #2) was milked three times daily and the weight of produced milk by each cow was recorded at each milking. The milk from each cow was sampled once per week (⅓ of the sample volume from each of the three milkings occurring on the weekly milk sampling day) and was analyzed for true protein, total fat, lactose, and total solids, as detailed in the property determination and characterization techniques presented above. Additionally, samples of blood were periodically obtained from each cow during the four trials (Control Trial 2, Pre-Partum Trial #2, Pre/Post Trial #1, and Pre/Post Trial #2) encompassed in Example Two and were analyzed for non-esterified fatty acid (NEFA) content as detailed in the property determination and characterization techniques presented above. No NEFA analysis was conducted on the cows employed in Control Trial #1 or Pre-Partum Trial #1 that are the subject of Example One. Example One includes Control Trial #1 and Pre-Partum Trial #1. Both primiparious cows and multiparious cows were included in Control Trial #1 and Pre-Partum Trial #1. Five primiparious cows and fifteen multiparious cows were included in Control Trial #1; likewise, five primiparious cows and fifteen multiparious cows were included in Pre-Partum Trial #1. All cows included in Control Trial #1 and Pre-Partum Trial #1 were Holsteins. Example Two includes Control Trial #2, Pre-Partum Trial #2, Pre/Post Trial #1, and Pre/Post Trial #2. Only multiparious, Holstein cows were included in Control Trial #2, […], Pre/Post Trial #1, and Pre/Post Trial #2. Eighteen multiparious cows were included in both Control Trial #2 and Pre-Partum Trial #2, while sixteen multiparious cows were included in Pre/Post Trial #1 and seventeen multiparious cows were included in Pre/Post Trial #2.

OC[C@@H](O)[C@@H](O)[C@H](O)[C@@H](O)CO [sorbitol]
Fat in Produced Milk (multiparious cows, weeks +1 through +8): 3.50 wt %
Fat in Produced Milk (primiparious cows, weeks +1 through +8): 4.2 wt %
increase in fat concentration in the produced milk (Pre-Partum Trial #1 (75 g/day wk −3..−1 only) versus Control Trial #1, primiparious cows, weeks +1 through +8): 11.7%
Fat Content of Produced Milk (Pre-Partum Trial #2 (75/0/100 g/day in wk −3..−1/+1..+4/+5..+8), multiparious cows, week +1): 4.91^a weight %
Fat Content of Produced Milk (Pre-Partum Trial #2 (75/0/100 g/day in wk −3..−1/+1..+4/+5..+8), multiparious cows, week +2): 4.50 weight %
Fat Content of Produced Milk (Pre-Partum Trial #2 (75/0/100 g/day in wk −3..−1/+1..+4/+5..+8), multiparious cows, week +3): 4.09 weight %
Fat Content of Produced Milk (Pre-Partum Trial #2 (75/0/100 g/day in wk −3..−1/+1..+4/+5..+8), multiparious cows, week +4): 3.41^a weight %
Fat Content of Produced Milk (Pre-Partum Trial #2 (75/0/100 g/day in wk −3..−1/+1..+4/+5..+8), multiparious cows, week +5): 3.35 weight %
Fat Content of Produced Milk (Pre-Partum Trial #2 (75/0/100 g/day in wk −3..−1/+1..+4/+5..+8), multiparious cows, week +6): 3.17^a weight %
Fat Content of Produced Milk (Pre-Partum Trial #2 (75/0/100 g/day in wk −3..−1/+1..+4/+5..+8), multiparious cows, week +7): 3.29 weight %
Fat Content of Produced Milk (Pre-Partum Trial #2 (75/0/100 g/day in wk −3..−1/+1..+4/+5..+8), multiparious cows, week +8): 3.34^ab weight %
Fat Content of Produced Milk (Pre-Partum Trial #2 (75/0/100 g/day in wk −3..−1/+1..+4/+5..+8), multiparious cows, weeks +1 through +4): 4.23^a weight %
Fat Content of Produced Milk (Pre-Partum Trial #2 (75/0/100 g/day in wk −3..−1/+1..+4/+5..+8), multiparious cows, weeks +1 through +8): 3.75^a weight %
Fat Content of Produced Milk (Pre-Partum Trial #2 (75/0/100 g/day in wk −3..−1/+1..+4/+5..+8), multiparious cows, weeks +5 through +8): 3.27^ab weight %
Fat Content of Produced Milk (Pre/Post Trial #1 (150/125/100 g/day in wk −3..−1/+1..+4/+5..+8), multiparious cows, week +1): 5.49^ab weight %
Fat Content of Produced Milk (Pre/Post Trial #1 (150/125/100 g/day in wk −3..−1/+1..+4/+5..+8), multiparious cows, week +1, two-trial comparison with Control Trial #2 (Table 23)): 5.49 weight %
Fat Content of Produced Milk (Pre/Post Trial #1 (150/125/100 g/day in wk −3..−1/+1..+4/+5..+8), multiparious cows, week +2): 4.41 weight %
Fat Content of Produced Milk (Pre/Post Trial #1 (150/125/100 g/day in wk −3..−1/+1..+4/+5..+8), multiparious cows, week +2, two-trial comparison with Control Trial #2 (Table 23)): 4.41 weight %
Fat Content of Produced Milk (Pre/Post Trial #1 (150/125/100 g/day in wk −3..−1/+1..+4/+5..+8), multiparious cows, week +3): 4.22 weight %
Fat Content of Produced Milk (Pre/Post Trial #1 (150/125/100 g/day in wk −3..−1/+1..+4/+5..+8), multiparious cows, week +3, two-trial comparison with Control Trial #2 (Table 23)): 4.22 weight %
Fat Content of Produced Milk (Pre/Post Trial #1 (150/125/100 g/day in wk −3..−1/+1..+4/+5..+8), multiparious cows, week +4): 4.01^b weight %
Fat Content of Produced Milk (Pre/Post Trial #1 (150/125/100 g/day in wk −3..−1/+1..+4/+5..+8), multiparious cows, week +4, two-trial comparison with Control Trial #2 (Table 23)): 4.01 weight %
Fat Content of Produced Milk (Pre/Post Trial #1 (150/125/100 g/day in wk −3..−1/+1..+4/+5..+8), multiparious cows, week +5): 3.71 weight %
Fat Content of Produced Milk (Pre/Post Trial #1 (150/125/100 g/day in wk −3..−1/+1..+4/+5..+8), multiparious cows, week +5, two-trial comparison with Control Trial #2 (Table 23)): 3.71 weight %
Fat Content of Produced Milk (Pre/Post Trial #1 (150/125/100 g/day in wk −3..−1/+1..+4/+5..+8), multiparious cows, week +6): 3.69^b weight %
Fat Content of Produced Milk (Pre/Post Trial #1 (150/125/100 g/day in wk −3..−1/+1..+4/+5..+8), multiparious cows, week +6, two-trial comparison with Control Trial #2 (Table 23)): 3.69 weight %
Fat Content of Produced Milk (Pre/Post Trial #1 (150/125/100 g/day in wk −3..−1/+1..+4/+5..+8), multiparious cows, week +7): 3.45 weight %
Fat Content of Produced Milk (Pre/Post Trial #1 (150/125/100 g/day in wk −3..−1/+1..+4/+5..+8), multiparious cows, week +7, two-trial comparison with Control Trial #2 (Table 23)): 3.45 weight %
Fat Content of Produced Milk (Pre/Post Trial #1 (150/125/100 g/day in wk −3..−1/+1..+4/+5..+8), multiparious cows, week +8): 3.68^b weight %
Fat Content of Produced Milk (Pre/Post Trial #1 (150/125/100 g/day in wk −3..−1/+1..+4/+5..+8), multiparious cows, week +8, two-trial comparison with Control Trial #2 (Table 23)): 3.68 weight %
Fat Content of Produced Milk (Pre/Post Trial #1 (150/125/100 g/day in wk −3..−1/+1..+4/+5..+8), multiparious cows, weeks +1 through +4): 4.53^ab weight %
Fat Content of Produced Milk (Pre/Post Trial #1 (150/125/100 g/day in wk −3..−1/+1..+4/+5..+8), multiparious cows, weeks +1 through +4, two-trial comparison with Control Trial #2 (Table 23)): 4.53 weight %
Fat Content of Produced Milk (Pre/Post Trial #1 (150/125/100 g/day in wk −3..−1/+1..+4/+5..+8), multiparious cows, weeks +1 through +8): 4.09^ab weight %
Fat Content of Produced Milk (Pre/Post Trial #1 (150/125/100 g/day in wk −3..−1/+1..+4/+5..+8), multiparious cows, weeks +1 through +8, two-trial comparison with Control Trial #2 (Table 23)): 4.09 weight %
Fat Content of Produced Milk (Pre/Post Trial #1 (150/125/100 g/day in wk −3..−1/+1..+4/+5..+8), multiparious cows, weeks +5 through +8): 3.63^b weight %
Fat Content of Produced Milk (Pre/Post Trial #1 (150/125/100 g/day in wk −3..−1/+1..+4/+5..+8), multiparious cows, weeks +5 through +8, two-trial comparison with Control Trial #2 (Table 23)): 3.63 weight %
increase in fat concentration in milk (Pre/Post Trial #1 (150/125/100 g/day) versus Control Trial #2, multiparious cows, weeks +1 through +8 (Table 23)): 7.3%
increase in fat concentration in milk (Pre/Post Trial #1 (150/125/100 g/day) versus Control Trial #2, multiparious cows, weeks +5 through +8 (Table 23)): 13.8%
greater fat concentration in milk (Pre/Post Trial #1 (150/125/100 g/day) versus Pre/Post Trial #2 (75/75/100 g/day), multiparious cows, week +8): 17.2%
Fat Content of Produced Milk (Pre/Post Trial #2 (75/75/100 g/day in wk −3..−1/+1..+4/+5..+8), multiparious cows, week +1): 6.23^b weight %
Fat Content of Produced Milk (Pre/Post Trial #2 (75/75/100 g/day in wk −3..−1/+1..+4/+5..+8), multiparious cows, week +2): 4.73 weight %
Fat Content of Produced Milk (Pre/Post Trial #2 (75/75/100 g/day in wk −3..−1/+1..+4/+5..+8), multiparious cows, week +3): 4.21 weight %
Fat Content of Produced Milk (Pre/Post Trial #2 (75/75/100 g/day in wk −3..−1/+1..+4/+5..+8), multiparious cows, week +4): 3.87^b weight %
Fat Content of Produced Milk (Pre/Post Trial #2 (75/75/100 g/day in wk −3..−1/+1..+4/+5..+8), multiparious cows, week +5): 3.89 weight %
Fat Content of Produced Milk (Pre/Post Trial #2 (75/75/100 g/day in wk −3..−1/+1..+4/+5..+8), multiparious cows, week +6): 3.48^ab weight %
Fat Content of Produced Milk (Pre/Post Trial #2 (75/75/100 g/day in wk −3..−1/+1..+4/+5..+8), multiparious cows, week +7): 3.47 weight %
Fat Content of Produced Milk (Pre/Post Trial #2 (75/75/100 g/day in wk −3..−1/+1..+4/+5..+8), multiparious cows, week +8): 3.14^a weight %
Fat Content of Produced Milk (Pre/Post Trial #2 (75/75/100 g/day in wk −3..−1/+1..+4/+5..+8), multiparious cows, weeks +1 through +4): 4.79^b weight %
Fat Content of Produced Milk (Pre/Post Trial #2 (75/75/100 g/day in wk −3..−1/+1..+4/+5..+8), multiparious cows, weeks +1 through +8): 4.13^b weight %
Fat Content of Produced Milk (Pre/Post Trial #2 (75/75/100 g/day in wk −3..−1/+1..+4/+5..+8), multiparious cows, weeks +5 through +8): 3.43^ab weight %
greater fat concentration in milk (Pre/Post Trial #2 (75/75/100 g/day) versus Pre-Partum Trial #2 (75/0/100 g/day), multiparious cows, weeks +1 through +4): 13.24%
greater fat concentration in milk (Pre/Post Trial #2 (75/75/100 g/day) versus Pre-Partum Trial #2 (75/0/100 g/day), multiparious cows, weeks +1 through +8): 10.1%
increase in fat concentration in milk (average of means of Pre-Partum Trial #2, Pre/Post Trial #1 and Pre/Post Trial #2 versus Control Trial #2, multiparious cows, weeks +1 through +8): 4.7%
increase in fat concentration in milk (average of means of Pre-Partum Trial #2, Pre/Post Trial #1 and Pre/Post Trial #2 versus Control Trial #2, multiparious cows, weeks +5 through +8): 7.9%

From patent US9179694B2, “Method and composition for enhancing milk production and milk component concentrations” (PURINA ANIMAL NUTRITION LLC, priority 2003, dated 2015)
